The test addresses T1, human cloned orexin-2 receptor (Homo sapiens, UniProt O43614).
T1 construct: expressed in transfected cells
T1 sequence (O43614 1-444): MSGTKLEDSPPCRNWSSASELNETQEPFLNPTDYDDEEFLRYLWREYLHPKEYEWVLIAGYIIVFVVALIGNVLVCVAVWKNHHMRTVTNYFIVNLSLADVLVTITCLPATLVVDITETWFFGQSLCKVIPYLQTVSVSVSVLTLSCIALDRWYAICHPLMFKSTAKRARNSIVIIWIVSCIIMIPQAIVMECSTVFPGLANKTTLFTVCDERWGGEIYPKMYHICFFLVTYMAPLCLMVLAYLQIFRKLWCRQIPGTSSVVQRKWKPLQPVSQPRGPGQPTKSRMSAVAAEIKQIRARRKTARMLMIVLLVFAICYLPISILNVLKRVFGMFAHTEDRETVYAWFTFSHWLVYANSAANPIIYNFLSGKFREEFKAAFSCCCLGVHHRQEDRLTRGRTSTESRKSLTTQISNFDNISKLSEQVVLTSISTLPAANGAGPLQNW
The test is described as follows: Determination of antagonist affinity at human Orexin-2 receptor using FLIPR ([Ca2+]i, CHO cells, hOrexin A at EC80). As to conditions: functional pKi from IC50 by modified Cheng-Prusoff, read-out: fpKi. Format: cell-based. The source says: Determination of Antagonist Affinity at Human Orexin-1 and 2 Receptors Using FLIPR
Adherent Chinese Hamster Ovary (CHO) cells, stably expressing the recombinant human Orexin-1 or human Orexin-2 receptors or Rat Basophilic Leukaemia Cells (RBL) stably expressing recombinant rat Orexin-1 or rat Orexin-2 receptors were maintained in culture in Alpha Minimum Essential Medium (Gibco/Invitrogen, cat. no.; 22571-020), supplemented with 10% decomplemented foetal bovine serum (Life Technologies, cat. no. 10106-078) and 400 μg/mL Geneticin G418 (Calbiochem, cat. no. 345810). Cells were grown as monolayers under 95%:5% air:CO2 at 37° C. […]
Compounds of the invention were tested in a final assay concentration range from 1.66×10^−5M to 1.58×10^−11M. […] This final concentration of hOrexin A was equivalent to the calculated EC80 for hOrexinA agonist potency in this test system. […]
The loaded cells were then incubated for 10 min at 37° C. with test compound. The plates were then placed into a FLIPR™ (Molecular Devices, UK) to monitor cell fluorescence (λex=488 nm, λEM=540 nm) (Sullivan E, Tucker E M, Dale I L. Measurement of [Ca^2]i using the fluometric imaging plate reader (FLIPR). In: Lambert DG (ed.), Calcium Signaling Protocols. New Jersey: Humana Press, 1999, 125-136). A baseline fluorescence reading was taken over a 5 to 10 second period, and then 10 μL of EC80 hOrexinA solution was added. […]

Experimental findings from patent publication US20120040991A1, “3-AZABICYCLO [4.1.0] HEPTANES USED AS OREXIN ANTAGONISTS” (Glaxo Group Limited, priority 2009, published 2012) are described below.

In the case of `CCOc1ccc(C)nc1C(=O)N1C[C@@H]2C[C@@H]2C[C@H]1COc1ncc(C(F)(F)F)cn1` [Example E4, (1R,4S,6R)-3-{[3-(ethyloxy)-6-methyl-2-pyridinyl]carbonyl}-4-({[5-(trifluoromethyl)-2-pyrimidinyl]oxy}methyl)-3-azabicyclo[4.1.0]heptane], the Ki was over 15.8 µM.
